From patent US20230303712A1, “METHODS OF TREATING GLIOBLASTOMA” (Ramot at Tel-Aviv University Ltd., priority 2020, published 2023)
“Also recorded” adds a separate entry of the source.

Experiments:
primary human microglia = assay: Nitric oxide secretion evaluation; assay type: cell-based; conditions: added to rSELP; SELPi 0.5 µM, antibodies 2.5 µg/ml, 24 h
Experimental: Nitric oxide secretion evaluation. Primary human/murine microglia (1 × 10^5 cells/ml) were seeded in PLL-coated plates. Twenty-four hours post-seeding, cells were treated with: 0% serum DMEM, 0% serum DMEM supplemented rSELP (1.5 µg/ml), 0% serum DMEM exposed to rSELP and SELPi (0.5 µM), 0% serum DMEM exposed to rSELP and anti-PSGL-1 neutralizing antibody (2.5 µg/ml), 0% serum DMEM exposed to rSELP and anti-CD44 neutralizing antibody (2.5 µg/ml), or 0% serum DMEM exposed to rSELP and anti-CD24 neutralizing antibody (2.5 µg/ml) for 24 h. Alternatively, macrophages were seeded in 96 well plates (5 × 10^5 cells/ml) treated with macrophages medium, macrophages medium supplemented with rSELP (3.5 µg/ml), macrophages medium supplemented with rSELP and SELPi (0.5 µM), macrophages medium supplemented with rSELP and anti-PSGL-1 neutralizing antibody (2.5 µg/ml), macrophages medium supplemented with rSELP and anti-CD44 neutralizing antibody (2.5 µg/ml) or macrophages medium supplemented with rSELP and anti-CD24 neutralizing antibody (2.5 µg/ml) for 24 h. Medium was then collected for evaluation of nitrite levels by the Total Nitric Oxide and Nitrate/Nitrite Parameter Assay Kit. Optical density was measured by a SpectraMax M5e multi-detection microplate reader system (Molecular Devices).

GL261 GB tumors = assay: SELPi treatment in murine GL261 GB model; assay type: in vivo, C57BL/6 mice
Experimental: Tumor volume was evaluated by MRI.
SELPi treatments. KF 38789 (SELPi) is a commercially-available P-Selectin inhibitor manufactured by Tocris BioScience. […] This compound is commonly used for research of immune-related processes such as tumor metastases formation. For the experiment described above, SELPi (0.8 mg/ml) was dissolved in DMSO (0.01%), polyethyleneglycol (93.2 mg/ml), Tween-80 (14.8 mg/ml) and DDW. Mice were injected with 16 mg/kg IV, twice a week, three times a week or QOD as described above. As control (vehicle), mice were injected with DMSO (0.01%), polyethyleneglycol (93.2 mg/ml), Tween-80 (14.8 mg/ml), in DDW at equivalent volume.
(§1) MRI imaging. Tumor bearing mice were imaged at the Sackler Cellular & Molecular Imaging Center (SCMIC), Tel Aviv University. Mice were anesthetized by ketamine (150 mg/kg) and xylazine (12 mg/kg) injected IP. T1 with contrast agent (Magnetol, Gd-DTPA, Soreq M.R.C. Israel Radiopharmaceuticals) and T2 weighted images were taken by 4.7T MRI - MRS 4000™ (MR solutions).

U251 tumors = assay: SELPi treatment in human U251 GB model; assay type: in vivo, SCID mice
Experimental: SELPi (0.8 mg/ml) was dissolved in DMSO 0.01%), polyethyleneglycol (93.2 mg/ml), Tween-80 (14.8 mg/ml), and DDW. Mice were treated intravenously (IV) twice a week with PBS, 16 mg/kg SELPi or vehicle (0.01% DMSO, 93.2 mg/ml polyethyleneglycol and 14.8 mg/ml Tween-80 in DDW). Tumor development was followed by monitoring the fluorescence intensity using the CRI Maestro™ imaging system.
Intravital imaging. The CRI Maestro™ non-invasive fluorescence imaging system was used to follow tumor progression in mice bearing mCherry- or iRFP- labeled U251 tumors. Mice were anesthetized by ketamine (150 mg/kg) and xylazine (12 mg/kg) injected IP, and were placed inside the imaging system. Multispectral image-cubes were used through 550-800 nm spectral range in 10 nm steps using excitation (575-605 nm) and emission (645 nm longpass) filter set. Mice autofluorescence and background signals were eliminated by spectral analysis and by applying a linear unmixing algorithm.

PD-GB4 tumors = assay: Local (intraventricular cannula) SELPi treatment in PD-GB PDX model; assay type: in vivo, SCID mice
Experimental: Tumor volume was evaluated by MRI. […] Twelve days post cell inoculation, 3 mice per group were euthanized and brain were resected and further processed for histology analysis. […] Brain cannulas (NBT) were implanted intraventricularly in the co-lateral hemisphere and the mice were treated stereotactically via the cannulas (1 µl at 0.2 µl/min flow rate) with PBS, 2 mg/kg SELPi dissolved in DMSO or vehicle (DMSO). Three weeks post cell-inoculation, the mice were euthanized, the cannulas were removed, and tumor volume was evaluated by MRI (MR solutions). Brains were resected for immunostaining.
as §1

[1] = Blood chemistry and blood count after systemic SELPi; assay type: in vivo, c57/BL mice; conditions: single IV dose 16 mg/kg, healthy mice, 24 h
Experimental: To test the effect of SELPi treatment in vivo on mice blood chemistry and blood count, c57/BL mice were injected with 16 mg/kg SELPi IV. Twenty-four hours following injecting, mice were euthanized and blood was collected. Blood samples were analyzed by AML Ltd (Herzliya, Israel). For all models, 50 × 10^3 GB cells were stereotactically injected in 5 µl at 1 µl/min flow rate. Injection coordination relative to the mouse Bregma point were: 2 mm lateral (left), 0.5 mm anterior, 3.5 mm ventral.

L-Selectin = target: T1, L-Selectin (Homo sapiens, UniProt P14151); conditions: cited from earlier work
T1 sequence (P14151 39-372): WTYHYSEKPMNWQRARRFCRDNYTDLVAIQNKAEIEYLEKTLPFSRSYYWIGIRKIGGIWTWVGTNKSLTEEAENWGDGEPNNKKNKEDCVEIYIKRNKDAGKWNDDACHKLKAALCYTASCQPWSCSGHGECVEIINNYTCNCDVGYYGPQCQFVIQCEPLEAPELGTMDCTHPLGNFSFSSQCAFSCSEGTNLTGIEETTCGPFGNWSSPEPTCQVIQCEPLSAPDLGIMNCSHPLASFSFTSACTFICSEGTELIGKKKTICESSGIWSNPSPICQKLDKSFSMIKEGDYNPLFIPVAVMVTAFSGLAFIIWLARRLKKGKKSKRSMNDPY

## COc1ccc(C2CC(c3c(O)cc(C)oc3=O)=NCCS2)c(OC)c1 (centres unmarked) [SELPi, 3-[7-(2,4-Dimethoxyphenyl)-2,3,6,7-tetrahydro-1,4-thiazepin-5-yl]-4-hydroxy-6-methyl-2H-pyran-2-one]
Primary human microglia
  restoration of NO levels: restored
GL261 GB tumors; GL261, SELPi IV 16 mg/kg three times a week, 16 mg/kg
  tumor volume (MRI): significant reduction in tumor volume; also recorded: reduced tumor growth
GL261 GB tumors; GL261 tumors
  CD4+ and CD8+ T cells in tumors: increase
  CD4+/FOXP3+ T cells in tumors: decrease
  blood vessel density (CD31 immunostaining): clear reduction
  proliferation (Ki-67 immunostaining): clear reduction
U251 tumors; U251 tumors
  blood vessel density (CD31): reduction
  invasion of GB cells (H&E): reduced
  microglia activation (Iba1): reduction
  proliferation of GB cells (Ki-67): reduced
U251 tumors; iRFP-labeled U251, 16 mg/kg SELPi IV twice a week
  tumor growth (fluorescence signal, CRI-Maestro): reduced the fluorescence signal; also recorded: delayed tumor growth
PD-GB4 tumors; PD-GB4, 2 mg/kg SELPi intraventricular via cannula, 21 days post injection
  reduction in tumor volume (MRI): 67%
PD-GB4 tumors; PD-GB4, local SELPi treatment, day 21
  tumor growth (tumor volume, MRI): delayed growth
PD-GB4 tumors; PD-GB4 tumors
  CD31 density: reduction
  Iba1 density: reduction
  invasion of GB cells: reduced
  proliferation of GB cells: reduced
[1]
  complete blood count: blood lymphocytes: increase in the absolute amount of blood lymphocytes
[1]; vs saline, vehicle
  blood chemistry: no significant changes
L-Selectin
  inhibiting effect on L-Selectin: no inhibiting effects
